Test results from US10933077B2, “TLR4 inhibitors for the treatment of human infectious and inflammatory disorders” (UNIVERSITY OF PITTSBURGH—OF THE COMMONWEALTH SYSTEM OF …, priority 2010, dated 2021).

Biological target: T1, TLR4 (Mus musculus, UniProt Q9JHF9+Q9QUK6)
T1 construct: Swiss Webster (CFW) and NFkB-luciferase reporter mice were obtained from The Jackson Laboratory; tissue The Jackson Laboratory; host or cells: whole live Swiss Webster (CFW) mice
T1 sequence (Q9QUK6 26-835): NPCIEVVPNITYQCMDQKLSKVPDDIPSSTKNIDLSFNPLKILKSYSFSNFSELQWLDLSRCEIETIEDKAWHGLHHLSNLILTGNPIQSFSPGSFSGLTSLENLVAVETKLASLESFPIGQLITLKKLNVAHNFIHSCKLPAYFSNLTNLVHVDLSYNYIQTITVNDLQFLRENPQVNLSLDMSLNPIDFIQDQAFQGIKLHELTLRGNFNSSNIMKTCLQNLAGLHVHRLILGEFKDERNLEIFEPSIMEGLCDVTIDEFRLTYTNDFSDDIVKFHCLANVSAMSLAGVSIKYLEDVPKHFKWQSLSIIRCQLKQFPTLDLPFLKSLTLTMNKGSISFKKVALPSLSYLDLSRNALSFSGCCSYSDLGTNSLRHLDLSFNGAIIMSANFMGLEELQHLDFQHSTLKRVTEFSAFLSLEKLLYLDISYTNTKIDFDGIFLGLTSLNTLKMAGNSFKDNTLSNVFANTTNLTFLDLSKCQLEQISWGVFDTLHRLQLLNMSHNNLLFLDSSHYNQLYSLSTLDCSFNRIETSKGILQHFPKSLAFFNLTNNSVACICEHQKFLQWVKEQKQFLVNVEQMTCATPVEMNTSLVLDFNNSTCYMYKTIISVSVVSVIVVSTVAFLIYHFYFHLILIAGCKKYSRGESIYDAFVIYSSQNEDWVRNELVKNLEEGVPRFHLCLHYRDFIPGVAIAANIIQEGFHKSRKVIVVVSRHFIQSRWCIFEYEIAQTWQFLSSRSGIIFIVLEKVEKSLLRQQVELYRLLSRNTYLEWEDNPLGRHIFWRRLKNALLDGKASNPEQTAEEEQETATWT
T1 sequence (Q9JHF9 19-160): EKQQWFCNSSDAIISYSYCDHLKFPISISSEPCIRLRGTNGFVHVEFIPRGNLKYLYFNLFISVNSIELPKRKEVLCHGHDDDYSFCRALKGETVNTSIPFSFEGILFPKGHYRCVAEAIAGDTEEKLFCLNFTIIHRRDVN
Test: CFW endotoxemia assay (observation of behavior and phenotype after LPS)
Assay type: in vivo
Details: CFW mice, 20 nanomoles compound i.p. 30 minutes prior to LPS 2 mg/kg, 6 hours; listed as “Hits”
Protocol: Compound preparation and delivery. All 65 identified compounds were received in solid form and stored at 4° C. until use. Stock solutions of each compound were made by dissolving the appropriate amount of each compound in dimethyl sulfoxide (DMSO) to yield a concentration of 10 mM. Immediately prior to injection into experimental animals, the compounds were diluted to an experimental concentration of 100 uM in phosphate-buffered saline (PBS). Total concentration of DMSO in the final diluted drug was 1%. Compounds were closely examined to insure that no precipitate formed prior to injection and were stored on ice until injection. All compounds were given via intraperitoneal (i.p.) injection in a total volume of 200 ul using a 1 cc syringe and 27 gauge needle. In all experiments listed below, the compounds were delivered to the experimental mice 30 minutes prior to injection with lipopolysaccharide (LPS) to induce endotoxemia. Control animals not receiving compound received 1% DMSO dissolved in PBS. Following drug injection, the mice were observed closely in their cages for signs of immediate toxicity or adverse reaction to the drug, including but not limited to piloerection, tachypnea, bleeding, abnormal or aggressive behavior, signs of altered mental status, and level of activity.
Induction of endotoxemia. All mice were housed and cared for at the Rangos Research Center, Children's Hospital of Pittsburgh (Pittsburgh, Pa.). All experiments were approved by the Children's Hospital of Pittsburgh Animal Care Committee and by the Institutional Review Board of the University of Pittsburgh. Swiss Webster (CFW) and NFkB-luciferase reporter mice were obtained from The Jackson Laboratory. Throughout the course of all experiments, mice were housed 4 per cage with access to food, water, and standard bedding. Endotoxemia was induced in all experiments by i.p. injection of LPS (Escherichia coli 0111:B4 purified by gel filtration chromatography, >99% pure, Sigma-Aldrich) at a dose of 2 mg/kg for 6 hours. At the end of each experiment, all animals were euthanized by CO2 hypoxia and cervical dislocation.
CFW endotoxemia assay. In order to effectively screen the entire compound list, the remaining compounds (7-60) were screened in a model of endotoxemia using CFW mice. Three separate experiments were performed: First, Compound 7 along with a repeat of compound 4 (n=3 mice per compound, mice age 5 weeks) were tested. Controls were saline injection alone (n=1), LPS 2 mg/kg 6 hrs (n=2). Second, compounds 3, 4, 6, 8-32 were tested (n=1 mouse each, 3 week old mice). Controls were saline injection alone (n=1), LPS 2 mg/kg 6 hrs (n=2), LPS 10 mg/kg 6 hrs (n=2), Bay 11 pretreatment 20 mg/kg for 30 minutes prior to LPS 2 mg/kg 6 hrs. Third, compounds 8, 16, 33-60 were tested (n=1 mouse each, 3 week old mice). Controls were saline injection alone (n=1), LPS 2 mg/kg 6 hrs (n=2), Bay 11 pretreatment 20 mg/kg for 30 minutes prior to LPS 2 mg/kg 6 hrs. Following 6 hours of endotoxemia, mice from the second and third experiments were observed within their cages and videotaped to document behavior and phenotypic differences to assess for an inhibitory effect of compound pretreatment on the effects of LPS. Mice were identified by a number previously placed using permanent marker on their tails. The degree of piloerection, tachypnea, location in the cage (center of cage versus corners), degree of activity, and behavior relative to other animals was observed and documented via video for each mouse.
Less activity, tachypnea, and piloerection are considered symptomatic of endotoxemia, so a decrease in these is consistent with TLR inhibition by the administered compound. Note that compounds listed as negatives may still be T4Ics at other concentrations or conditions.

Row | Compound | Observation (Compound “Hits”)
1 | CCOC1OC(CO)C(O)C(O)C1NC(C)=O (stereo not shown) [Compound 63, N-[2-ethoxy-4,5-dihydroxy-6-(hydroxymethyl)oxan-3-yl]acetamide] | More mobile, less piloerection
2 | CC(=O)N[C@H]1[C@H](OC[C@H]2O[C@@H]3OC(C)(C)O[C@@H]3[C@H]3OC(C)(C)O[C@H]32)O[C@H](CO)[C@@H](O)[C@@H]1O [Compound 21, N-((2R,3R,4R,5S,6R)-4,5-dihydroxy-6-(hydroxymethyl)-2-(((3aR,5R,5aS,8aS,8bR)-2,2,7,7-tetramethyltetrahydro-3aH-bis[1,3]dioxolo[4,5-b:4′,5′-d]pyran-5-yl)methoxy)tetrahydro-2H-pyran-3-yl) acetamide] | More active, crawled over other mice, less piloerection
3 | CCO[C@@H]1O[C@H](COC(C)=O)[C@@H](OC(C)=O)[C@H](OC(C)=O)[C@H]1NC(C)=O [Compound 55, ethyl 3,4,6-tri-O-acetyl-2-(acetylamino)-2-deoxy-beta-D-glycero-hexopyranoside] | Less piloerection, less tachypnea, more active
4 | CCO[C@@H]1O[C@H](CO)[C@@H](O)[C@H](O)[C@H]1NC(C)=O [Compound 54, ethyl 2-(acetylamino)-2-deoxy-beta-D-glycero-hexopyranoside] | Less piloerection, less tachypnea
5 | O=P(O)(O)OCC1OC(OP(=O)(O)O)C(O)[C@H](O)[C@@H]1O (stereo partly drawn) [Compound 8, cyclohexanamine compound with 1,6-di-O-phosphono-beta-D-glycero-hexopyranose (4:1) hydrate] | More mobile, less piloerection
6 | C=CCO[C@@H]1O[C@H](COC(C)=O)[C@H](OC(C)=O)[C@H](OC(C)=O)[C@H]1NC(C)=O [Compound 47, allyl 3,4,6-tri-O-acetyl-2-(acetylamino)-2-deoxy-beta-D-lyxo-hexopyranoside] | More active, crawled over other mice, less piloerection
7 | CC(=O)N[C@H]1[C@H](O[C@H]2[C@H](O)[C@@H](O)[C@H](O[C@H]3[C@H](O)[C@@H](CO)OC(O)[C@@H]3NC(C)=O)O[C@@H]2C(=O)O)O[C@H](CO)[C@@H](O)[C@H]1O[C@H]1O[C@H](C(=O)O)[C@@H](O)[C@H](O)[C@H]1O (stereo partly drawn) [Compound 42, 2-(acetylamino)-3-O-{4-O-[2-(acetylamino)-2-deoxy-3-O-alpha-D-xylo-hexopyranuronosyl-beta-D-ribo-hexopyranosyl]-beta-D-xylo-hexopyranuronosyl}-2-deoxy-D-glucopyranose] | Less tachypnea, more mobile
8 | C=CCO[C@@H]1O[C@H](CO)[C@@H](O)[C@H](O)[C@H]1NC(C)=O [Compound 50, allyl 2-(acetylamino)-2-deoxy-beta-D-glycero-hexopyranoside] | More active
9 | CCCCCCO[C@@H]1O[C@H](COC(C)=O)[C@@H](OC(C)=O)[C@H](OC(C)=O)[C@H]1NC(C)=O [Compound 36, hexyl 3,4,6-tri-O-acetyl-2-(acetylamino)-2-deoxy-beta-D-glucopyranoside] | More active, crawled over other mice, less piloerection
10 | CC(=O)NC1C(O)OC(CO)C(O)C1O [Compound 52, 2-(acetylamino)-2-deoxy-beta-D-glycero-hexopyranose] | More active, less piloerection

Same assay, conditions: CFW mice, 20 nanomoles compound i.p. 30 minutes prior to LPS 2 mg/kg, 6 hours; listed as “Negatives”

Row | Compound | Observation (Compound “Negatives”)
11 | CC(=O)N[C@H]1C(O)O[C@H](CO)[C@@H](O)[C@@H]1O[C@H](C)C(=O)N[C@@H](C)C(=O)N[C@H](CCC(=O)O)C(N)=O (stereo partly drawn) [Compound 40, (4R)-4-((2S)-2-((2R)-2-((3R,4R,5S,6R)-3-acetamido-2,5-dihydroxy-6-(hydroxymethyl)tetrahydro-2H-pyran-4-yloxy)propanamido)propanamido)-5-amino-5-oxopentanoic acid] | Less active, huddled in corner
12 | CCCCO[C@@H]1O[C@H](CO)[C@@H](OC)[C@H](OC)[C@H]1NC(C)=O [Compound 14, butyl 2-(acetylamino)-2-deoxy-3,4-di-O-methyl-beta-D-glucopyranoside] | Refused to move from corner, very tachpneic
13 | CC(=O)N[C@H]1[C@H](O[C@H]2[C@H](O)[C@@H](NC(C)=O)C(O)O[C@@H]2CO)O[C@H](CO)[C@@H](O[C@@H]2O[C@H](CO)[C@@H](O)[C@H](O)[C@H]2NC(C)=O)[C@@H]1O (stereo partly drawn) [Compound 1, 2-(acetylamino)-4-O-{2-(acetylamino)-4-O-[2-(acetylamino)-2-deoxy-beta-D-glucopyranosyl]-2-deoxy-beta-D-glucopyranosyl}-2-deoxy-D-glucopyranose] | More tachypnea, rigors
14 | CC(=O)N[C@@H]1[C@@H](O)[C@@H](O)[C@@H](CO)O[C@@H]1O [Compound 31, 2-(acetylamino)-2-deoxy-alpha-D-lyxo-hexopyranose] | More tachypneic, more piloerection
15 | CC(=O)N[C@H]1[C@H](OC[C@H]2O[C@@H]3OC4(CCCCC4)O[C@@H]3[C@H]3OC4(CCCCC4)O[C@H]32)O[C@H](CO)[C@@H](O)[C@@H]1O [Compound 37, N-[(2R,3R,4R,5S,6R)-2-[(1′S,2′R,6′R,8′R,9′S)-dispiro[cyclohexane-1,4′-[3,5,7,10,12]pentaoxatricyclo[7.3.0.0^{2,6}]dodecane-11′,1″-cyclohexane]-8′-ylmethoxy]-4,5-dihydroxy-6-(hydroxymethyl)oxan-3-yl]acetamide] | More tachypneic, less active
16 | (2R,3S,4R,5R,6R)-5-acetamido-2-(acetoxymethyl)-6-(((3aR,5R,5aS,8aS,8bR)-2,2,7,7-tetramethyltetrahydro-3aH-bis[1,3]dioxolo[4,5-b:4′,5′-d]pyran-5-yl)methoxy)tetrahydro-2H-pyran-3,4-diyl-diacetate [Compound 38] | Less active
